What is called IC50 is the concentration needed to halve the response being measured. The Ki is a measure of affinity in units of concentration, obtained from inhibition or displacement. Lower therefore signals tighter binding. The EC50 is the concentration that produces a half-maximal response.

The target in experiment [1] is T1, CB2 receptor (Homo sapiens, UniProt P34972).
T1 construct: expressed in transfected cells; host or cells: CHO-K1
Nature of the experiment: hCB2-mediated [35S]GTPγS binding. In kind it is biochemical. How it is done:
(§1) EC50 values in functional assays were also derived from automated nonlinear regression analysis of sigmoidal titration curves using the three-parameter modification of the four-parameter equation.
(§2) Chinese hamster ovary cells (CHO-K1), stably transfected with either hCB1 or hCB2, were washed two times with cold PBS, scraped from 500 cm^2 tissue culture plates, and pelleted by centrifugation at 1000×g for 10 min. […]
(§3) hCB1-Mediated stimulation of [^35S]GTPγS binding was measured in a mixture containing 100-150 pM [^35S]GTPγS, 150 mM NaCl, 45 mM MgCl2, […], 0.4 mM DTT, 1 mM EGTA, 1 mg/mL fatty acid free BSA, 25 μg of membrane protein and agonist in a total volume of 250 μL of buffer A in 96 well Basic Flashplates (Perkin Elmer). After incubation at room temperature for 2 hours the plates were centrifuged at 800×g at 4° C. for 5 min and the radioactivity bound to the membranes was determined by scintillation spectrometry using the Topcount (Perkin Elmer).
hCB2-Mediated [35 S]GTPγS binding was measured in the same way except the assay mixture contained […] and the incubation time was 6 hours. […] After incubation at 30° C. for 2 hours, the plates were centrifuged at 800×g at 4° C. for 5 min and the radioactivity bound to the membrane was determined by scintillation spectrometry using the Topcount (Perkin Elmer).
A general note: GTPγS is a poorly hydrolysed GTP analogue; its binding reports G protein activation.

Experiment [2] deals with T1, CB2 receptor. As to the kind of experiment: Inhibition of [3H]CP55940 binding to cloned human CB2 receptor membranes. How it is done: (§4) Ki values in receptor binding experiments were determined by Cheng-Prusoff correction of IC50 values derived from automated nonlinear regression analysis of sigmoidal titration curves using a three-parameter modification (slope set to 1.0) of the four-parameter equation described in Cheng, Y.-C. and W. H. Prusoff, Biochem. Pharmacol. 22:3099-3108 (1973) and DeLean et al., Am. J. Physiol. 235:E97-E102 (1978).
as §2
(§5) Binding assays were performed by incubating 0.2-0.6 nM (34,000-100,000 dpm) [^3H]CP55940 with membranes prepared from cells expressing cloned human CB1 or CB2 receptors in buffer A (50 mM Tris HCl, pH 7.0, 5.0 mM MgCl2, 1.0 mM EGTA and 1.0 mg/mL fatty acid free bovine serum albumin). […] The filters were rinsed 6 times with one mL of cold wash buffer (50 mM Tris HCl, pH 7.0, 5.0 mM MgCl2, 1.0 mM EGTA and 0.75 mg/mL fatty acid free bovine serum albumin), 30 μL of MicroScint 20 was added to each filter and the radioactivity on the filters determined by scintillation spectroscopy. Nonspecific binding was determined in the presence of 10 μM WIN55212-2.

Experiment [3] concerns the target T2, CB1 receptor (Homo sapiens, UniProt P21554).
T2 construct: expressed in transfected cells; host or cells: CHO-K1
As to the kind of experiment: Inhibition of [3H]CP55940 binding to cloned human CB1 receptor membranes. How it is done: as §4, §2, §5

Experiment [4] addresses T2, CB1 receptor. As to the kind of experiment: hCB1-mediated stimulation of [35S]GTPγS binding. The class given is biochemical. The conditions noted are these: in vitro functional assay. How it is done:
as §1
Chinese hamster ovary cells (CHO-K1), stably transfected with either hCB1 or hCB2, were washed two times with cold PBS, scraped from 500 cm^2 tissue culture plates, and pelleted by centrifugation at 1000×g for 10 min. The supernatant was discarded and the pellet was resuspended in Tris assay buffer (50 mM Tris HCl, pH 7.8, containing 1.0 mM EGTA, 5.0 mM MgCl2, […], and […] aprotinin), homogenized with a Polytron homogenizer (Brinkmann) at a setting of 1 for 20 sec and centrifuged at 38,000×g for 20 min at 4° C. […]
as §3

T1 sequence (P34972 whole entry): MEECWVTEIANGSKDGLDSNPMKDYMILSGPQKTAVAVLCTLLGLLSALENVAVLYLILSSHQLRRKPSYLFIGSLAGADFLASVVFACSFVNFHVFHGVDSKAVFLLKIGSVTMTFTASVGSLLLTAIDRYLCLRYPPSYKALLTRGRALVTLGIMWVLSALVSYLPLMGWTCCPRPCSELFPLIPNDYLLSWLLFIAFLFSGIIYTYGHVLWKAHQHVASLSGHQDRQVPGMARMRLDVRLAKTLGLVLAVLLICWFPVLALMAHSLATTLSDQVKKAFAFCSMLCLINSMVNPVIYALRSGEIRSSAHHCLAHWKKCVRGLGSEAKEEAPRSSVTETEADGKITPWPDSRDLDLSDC
T2 sequence (P21554 whole entry): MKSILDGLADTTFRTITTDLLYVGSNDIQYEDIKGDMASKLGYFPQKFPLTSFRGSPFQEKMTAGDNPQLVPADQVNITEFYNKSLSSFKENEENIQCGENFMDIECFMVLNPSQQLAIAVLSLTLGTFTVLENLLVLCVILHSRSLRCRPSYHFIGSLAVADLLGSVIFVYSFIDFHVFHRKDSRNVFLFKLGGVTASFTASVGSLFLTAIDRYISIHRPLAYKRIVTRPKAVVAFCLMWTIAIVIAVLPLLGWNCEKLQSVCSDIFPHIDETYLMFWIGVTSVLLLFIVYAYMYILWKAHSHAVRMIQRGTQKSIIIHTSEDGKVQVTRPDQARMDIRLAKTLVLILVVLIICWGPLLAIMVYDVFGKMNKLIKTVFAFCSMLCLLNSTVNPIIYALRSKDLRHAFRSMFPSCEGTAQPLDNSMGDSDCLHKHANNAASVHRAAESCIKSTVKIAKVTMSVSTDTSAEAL

On to `COCCNc1ccc(C(=O)NC2C(C)(C)[C@@H]3CC[C@@]2(C)C3)cc1S(=O)(=O)N1CCOCC1` (stereo partly drawn) [Compound 2D, 4-(2-methoxyethylamino)-3-(morpholinosulfonyl)-N-((1S,4R)-1,3,3-trimethylbicyclo[2.2.1]heptan-2-yl)benzamide], for which the IC50 at CB2 receptor [1] (antagonist mode, read-out: in vitro CB2 receptor antagonist potency (IC50)) was determined as 8.5 nM. Moreover, the Ki was 1.6 nM on CB2 receptor [2] and 1310 nM at CB1 receptor [3].

For the compound `CNc1ccc(C(=O)N[C@@H]2C(C)(C)[C@@H]3CC[C@@]2(C)C3)cc1S(=O)(=O)N(C)C` [Compound 1X, 3-(N,N-dimethylsulfamoyl)-4-(methylamino)-N-((1S,2S,4R)-1,3,3-trimethylbicyclo[2.2.1]heptan-2-yl)benzamide], on CB2 receptor [1] (agonist mode, read-out: in vitro CB2 receptor agonist potency (EC50)), the EC50 was 18.6 nM. Also, the Ki on CB2 receptor [2] came to 8.9 nM; at CB1 receptor [3], 1930 nM. Besides, the “in vitro CB1 receptor agonist activity” value at CB1 receptor [4] is given as “no in vitro CB1 receptor agonist activity”.

Source of the values: US7544676B2, “Sulfamoyl benzamides and methods of their use” (Adolor Corporation, priority 2005, dated 2009).
